# Source: patent publication USRE48461E1, “Modulation of androgen receptor expression” (Ionis Pharmaceuticals, Inc., priority 2012, dated 2021)
# Columns and labels:
# Assay type in all cases: cell-based, human
# [1] = tested on: TMPRSS2 mRNA; test: TMPRSS2 expression in LNCaP cells (complete, CSS+DHT medium); conditions: for Percent inhibition of TMPRSS2 expression in LNCaP cells cultured in CSS + DHT medium: CSS + DHT (1 nM) medium, 48 hrs; for Percent inhibition of TMPRSS2 expression in LNCaP cells cultured in complete medium: 48 hours
# Experimental: (§1) Cells were plated at 1,000 cells per well. […] ISIS 549148 was included as a negative control. […] After an incubation period of 48 hours, RNA levels of AR, PSA and TMPRSS2 were measured.
# (§2) Cells were plated at 2,000 cells per well and cultured in phenol red-free RPMI supplemented with 5% charcoal stripped serum (Gibco) media for 16 hours. […] ISIS 549148 was included as a negative control. […] After an incubation period of 4 hrs, DHT was added to the medium to a final concentration of 1 nM as indicated. RNAs were collected 48 hrs later and levels of AR, PSA and TMPRSS2 were measured. In the absence of DHT, AR expression in LNCaP cells was 95%, PSA expression was 7% and TMPRSS2 expression was 24% compared to the untreated control.
# [2] = tested on: PSA mRNA; test: PSA expression in LNCaP cells (complete, CSS+DHT medium); conditions: for Percent inhibition of PSA expression in LNCaP cells cultured in CSS + DHT medium: CSS + DHT (1 nM) medium, 48 hrs; for Percent inhibition of PSA expression in LNCaP cells cultured in complete medium: 48 hours
# Experimental: as §1, §2
# [3] = tested on: AR mRNA; test: AR RNA expression in C4-2 cells (complete, CSS+DHT medium); conditions: 48 hrs; for Percent expression of AR: C4-2 cells, CSS + DHT medium
# Experimental: Cells were plated at 1,000 cells per well. […] After an incubation period of 48 hrs, RNA levels of AR, PSA and TMPRSS2 were measured.
# Cells were plated at 2,000 cells per well and cultured in CSS media with 1 nM DHT. […] After an incubation period of 48 hrs, RNA levels of AR, PSA and TMPRSS2 were measured.
# [4] = tested on: C4-2B cells; test: C4-2B cell proliferation, ASO in combination with MDV3100 (Example 21); conditions: for Proliferation (% untreated control) in C4-2B without MDV-3100: 5 days
# Experimental: C4-2B cells were plated at 1,000 cells per well. […] ISIS 549148 was included as a negative control. […] After a treatment period of 5 days, the proliferative capacity of the cancer cells was measured with CellTiter 96® AQueous One Solution Cell Proliferation kit (Promega), following the manufacturer's instructions. […]
# [5] = tested on: LNCaP cells; test: LNCaP cell proliferation (complete or CSS+DHT medium); conditions: 5 days; for Proliferation (% untreated control) in LNCaP cells cultured in CSS + DHT medium: CSS + 1 nM DHT medium
# Experimental: After a treatment period of 5 days in complete medium or CSS+1 nM DHT medium, the proliferative capacity of the cancer cells was measured with using CellTiter 96® AQueous One Solution or CellTiter-Glo® solution Cell Proliferation kit (Promega), following the manufacturer's instructions. […] Treatment with ISIS oligonucleotides in CSS+DHT medium reduced the proliferative capacity to a greater extent than treatment with MVD-3100. The proliferative capacity of cells cultured in CSS medium without DHT is 17% of untreated control levels.
# [6] = tested on: full length AR mRNA; test: Full-length AR RNA in 22RV1 cells (complete, CSS+DHT medium); conditions: RNAiMax, 48 hrs
# Experimental: Cells were plated at 1,000 cells per well. […] After an incubation period of 48 hrs, RNA levels of full length AR, the V7 variant, PSA and TMPRSS2 were measured.
# After an incubation period of 48 hrs, RNA levels of full length AR, the V7 variant, PSA and TMPRSS2 were measured.
# Cells were plated at 2,000 cells per well and cultured in CSS media for 16 hours. […] After 4 hrs, 1 nM DHT was added. […] After an incubation period of 48 hrs, RNA levels of AR, AR V7 variant, PSA and TMPRSS2 were measured.
sequence,measurement,setting,value
"GGCTACTACGCCGTCA (3-10-3 (S)-cEt gapmer, chemistry not fully specified) [ISIS 549148, reference compound]",Percent inhibition of TMPRSS2 expression in LNCaP cells cultured in CSS + DHT medium,[1]; 0.04 μM,0%
same,Percent inhibition of TMPRSS2 expression in LNCaP cells cultured in CSS + DHT medium,[1]; 0.2 μM,0%
same,Percent inhibition of TMPRSS2 expression in LNCaP cells cultured in CSS + DHT medium,[1]; 1 μM,1%
same,Percent inhibition of TMPRSS2 expression in LNCaP cells cultured in CSS + DHT medium,[1]; 5.0 μM,10%
same,Percent inhibition of TMPRSS2 expression in LNCaP cells cultured in complete medium,[1]; 0.04 μM,0%
same,Percent inhibition of TMPRSS2 expression in LNCaP cells cultured in complete medium,[1]; 0.2 μM,0%
same,Percent inhibition of TMPRSS2 expression in LNCaP cells cultured in complete medium,[1]; 1 μM,0%
same,Percent inhibition of TMPRSS2 expression in LNCaP cells cultured in complete medium,[1]; 5.0 μM,0%
same,Percent inhibition of PSA expression in LNCaP cells cultured in CSS + DHT medium,[2]; 0.04 μM,0%
same,Percent inhibition of PSA expression in LNCaP cells cultured in CSS + DHT medium,[2]; 0.2 μM,8%
same,Percent inhibition of PSA expression in LNCaP cells cultured in CSS + DHT medium,[2]; 1 μM,0%
same,Percent inhibition of PSA expression in LNCaP cells cultured in CSS + DHT medium,[2]; 5.0 μM,9%
same,Percent inhibition of PSA expression in LNCaP cells cultured in complete medium,[2]; 0.04 μM,0%
same,Percent inhibition of PSA expression in LNCaP cells cultured in complete medium,[2]; 0.2 μM,0%
same,Percent inhibition of PSA expression in LNCaP cells cultured in complete medium,[2]; 1 μM,0%
same,Percent inhibition of PSA expression in LNCaP cells cultured in complete medium,[2]; 5.0 μM,0%
same,Percent expression of AR,[3]; 0.04 μM,101%
same,Percent expression of AR,[3]; 0.2 μM,101%
same,Percent expression of AR,[3]; 1 μM,118%
same,Percent expression of AR in C4-2 cells cultured in complete medium,[3]; 0.04 μM,89%
same,Percent expression of AR in C4-2 cells cultured in complete medium,[3]; 0.2 μM,90%
same,Percent expression of AR in C4-2 cells cultured in complete medium,[3]; 1 μM,84%
same,Percent expression of AR in C4-2 cells cultured in complete medium,[3]; 5.0 μM,86%
same,Proliferation (% untreated control) in C4-2B with 0.08 μM MDV-3100,[4]; ASO dose 0.04 μM + 0.08 μM MDV-3100,125 % untreated control
same,Proliferation (% untreated control) in C4-2B with 0.4 μM MDV-3100,[4]; ASO dose 0.04 μM + 0.4 μM MDV-3100,110 % untreated control
same,Proliferation (% untreated control) in C4-2B with 2.0 μM MDV-3100,[4]; ASO dose 0.04 μM + 2.0 μM MDV-3100,40 % untreated control
same,Proliferation (% untreated control) in C4-2B with […] MDV-3100,[4]; ASO dose 0.04 μM + […] MDV-3100,107 % untreated control
same,Proliferation (% untreated control) in C4-2B without MDV-3100,[4]; ASO dose 0.04 μM,117 % untreated control
same,Proliferation (% untreated control) in C4-2B with 0.08 μM MDV-3100,[4]; ASO dose 0.08 μM + 0.08 μM MDV-3100,84 % untreated control
same,Proliferation (% untreated control) in C4-2B with 0.4 μM MDV-3100,[4]; ASO dose 0.08 μM + 0.4 μM MDV-3100,89 % untreated control
same,Proliferation (% untreated control) in C4-2B with 2.0 μM MDV-3100,[4]; ASO dose 0.08 μM + 2.0 μM MDV-3100,47 % untreated control
same,Proliferation (% untreated control) in C4-2B with […] MDV-3100,[4]; ASO dose 0.08 μM + […] MDV-3100,110 % untreated control
same,Proliferation (% untreated control) in C4-2B without MDV-3100,[4]; ASO dose 0.08 μM,111 % untreated control
same,Proliferation (% untreated control) in C4-2B with 0.08 μM MDV-3100,[4]; ASO dose 0.2 μM + 0.08 μM MDV-3100,123 % untreated control
same,Proliferation (% untreated control) in C4-2B with 0.4 μM MDV-3100,[4]; ASO dose 0.2 μM + 0.4 μM MDV-3100,88 % untreated control
same,Proliferation (% untreated control) in C4-2B with 2.0 μM MDV-3100,[4]; ASO dose 0.2 μM + 2.0 μM MDV-3100,52 % untreated control
same,Proliferation (% untreated control) in C4-2B with […] MDV-3100,[4]; ASO dose 0.2 μM + […] MDV-3100,124 % untreated control
same,Proliferation (% untreated control) in C4-2B without MDV-3100,[4]; ASO dose 0.2 μM,118 % untreated control
same,Proliferation (% untreated control) in C4-2B with 0.08 μM MDV-3100,[4]; ASO dose 1.0 μM + 0.08 μM MDV-3100,114 % untreated control
same,Proliferation (% untreated control) in C4-2B with 0.4 μM MDV-3100,[4]; ASO dose 1.0 μM + 0.4 μM MDV-3100,88 % untreated control
same,Proliferation (% untreated control) in C4-2B with 2.0 μM MDV-3100,[4]; ASO dose 1.0 μM + 2.0 μM MDV-3100,59 % untreated control
same,Proliferation (% untreated control) in C4-2B with […] MDV-3100,[4]; ASO dose 1.0 μM + […] MDV-3100,103 % untreated control
same,Proliferation (% untreated control) in C4-2B without MDV-3100,[4]; ASO dose 1.0 μM,126 % untreated control
same,Proliferation (% untreated control) in LNCaP cells cultured in CSS + DHT medium,[5]; 0.04 μM,112 % untreated control
same,Proliferation (% untreated control) in LNCaP cells cultured in CSS + DHT medium,[5]; 0.2 μM,96 % untreated control
same,Proliferation (% untreated control) in LNCaP cells cultured in CSS + DHT medium,[5]; 1 μM,95 % untreated control
same,Proliferation (% untreated control) in LNCaP cells cultured in CSS + DHT medium,[5]; 5.0 μM,89 % untreated control
same,Proliferation (% untreated control) in LNCaP cells cultured in complete medium,[5]; 0.04 μM,101 % untreated control
same,Proliferation (% untreated control) in LNCaP cells cultured in complete medium,[5]; 0.2 μM,95 % untreated control
same,Proliferation (% untreated control) in LNCaP cells cultured in complete medium,[5]; 1 μM,94 % untreated control
same,Proliferation (% untreated control) in LNCaP cells cultured in complete medium,[5]; 5.0 μM,110 % untreated control
same,Percent inhibition of full-length AR,"[6]; CSS + DHT medium, 1.34 nM",2%
same,Percent inhibition of full-length AR,"[6]; CSS + DHT medium, 4.0 nM",13%
same,Percent inhibition of full-length AR,"[6]; CSS + DHT medium, 13.4 nM",22%
same,Percent inhibition of full-length AR,"[6]; complete medium, 1.34 nM",6%
same,Percent inhibition of full-length AR,"[6]; complete medium, 4.0 nM",0%
same,Percent inhibition of full-length AR,"[6]; complete medium, 13.4 nM",11%
same,Percent inhibition of full-length AR,"[6]; complete medium, 40 nM",17%
